The values below come from patent US6545014B2, “Method of treating glaucoma” (Texas Biotechnology Corporation, priority 1991, dated 2003).

Read-outs that look alike come from different tables or passages of the source.

Assay [1] concerns the target T1, human ETA receptors (Homo sapiens, UniProt P25101).
T1 construct: host or cells: TE 671 cells (membranes)
T1 sequence (P25101 21-427): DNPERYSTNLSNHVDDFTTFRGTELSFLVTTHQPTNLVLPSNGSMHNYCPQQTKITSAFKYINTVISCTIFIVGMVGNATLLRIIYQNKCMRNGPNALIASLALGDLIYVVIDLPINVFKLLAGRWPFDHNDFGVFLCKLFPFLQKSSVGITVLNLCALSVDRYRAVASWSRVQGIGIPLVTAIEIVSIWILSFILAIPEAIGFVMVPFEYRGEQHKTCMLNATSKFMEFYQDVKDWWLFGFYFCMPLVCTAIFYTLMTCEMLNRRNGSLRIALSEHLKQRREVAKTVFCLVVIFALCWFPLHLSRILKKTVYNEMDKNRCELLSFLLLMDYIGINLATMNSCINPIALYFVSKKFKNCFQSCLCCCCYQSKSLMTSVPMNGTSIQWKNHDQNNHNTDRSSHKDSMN
The experiment in a line: Binding Test #1: inhibition of 125I-endothelin-1 binding to ETA receptors (TE 671 cell membranes). Conditions: incubation at 24° C.; generally the average of 2 to 3 experiments. The source says: (§1) Compounds that are potential endothelin antagonists are identified by testing their ability to compete with ^125I-labeled ET-1 for binding to human ETA receptors or ETB receptors present on isolated cell membranes. The effectiveness of the test compound as an antagonist or agonist of the biological tissue response of endothelin can also be assessed by measuring the effect on endothelin induced contraction of isolated rat thoracic aortic rings. The ability of the compounds to act as antagonists or agonists for ETB receptors can be assess by testing the ability of the compounds are to inhibit endothelin-1 induced prostacyclin release from cultured bovine aortic endothelial cells.
TE 671 cells (ATCC Accession No. HTB 139) express ETA receptors. These cells were grown to confluence in T-175 flasks. Cells from multiple flasks were collected by scraping, pooled and centrifuged for 10 min at 190×g. The cells were resuspended in phosphate buffered saline (PBS) containing 10 mM EDTA using a Tenbroeck homogenizer. The suspension was centrifuged at 4° C. at 57,800×g for 15 min, the pellet was resuspended in 5 ml of buffer A (5 mM HEPES buffer, pH 7.4 containing aprotinin (100 KIU/ml)) and then frozen and thawed once. 5 ml of Buffer B (5 mM HEPES Buffer, pH 7.4 containing 10 mM MnCl2 and 0.001 % deoxyribonuclease Type 1) was added, the suspension mixed by inversion and then incubated at 37° C. for 30 minutes. The mixture was centrifuged at 57,800×g as described above, the pellet washed twice with buffer A and then resuspended in buffer C (30 mM HEPES buffer, pH 7.4 containing aprotinin (100 KIU/ml) to give a final protein concentration of 2 mg/ml and stored at −70° C. until use.
The membrane suspension was diluted with binding buffer (30 mM HEPES buffer, pH 7.4 containing 150 mM NaCl, 5 mM MgCl2, 0.5% Bacitracin) to a concentration of 8 μg/50, μl. ^125I-endothelin-1 (3,000 cpm, […]) was added to 50 μl of either: (A) endothelin-1 (for non specific binding) to give a final concentration 80 nM); (B) binding buffer (for total binding); or (C) a test compound (final concentration 1 nM to 100 μM). The membrane suspension (50 μl), containing up to 8 μg of membrane protein, was added to each of (A), (B), or (C). Mixtures were shaken, and incubated at 4° C. for 16-18 hours, and then centrifuged at 4° C. for 25 min at 2,500×g. Alternatively, the incubation was conducted at 24° C. When incubated at 24° C., the IC50 concentrations are 2- to 10-fold higher than when the incubation is conducted at 4° C. This, must be kept in mind when comparing IC50 concentrations among compounds provided herein.
The supernatant, containing unbound radioactivity, was decanted and the pellet counted on a Genesys multiwell gamma counter. The degree of inhibition of binding (D) was calculated according to the following equation: [formula]
Each test was generally performed in triplicate.

Assay [2] concerns the target T2, human ETB receptor (Homo sapiens, UniProt P24530).
T2 construct: expressed in transfected cells; host or cells: COS7 cells
T2 sequence (P24530 27-442): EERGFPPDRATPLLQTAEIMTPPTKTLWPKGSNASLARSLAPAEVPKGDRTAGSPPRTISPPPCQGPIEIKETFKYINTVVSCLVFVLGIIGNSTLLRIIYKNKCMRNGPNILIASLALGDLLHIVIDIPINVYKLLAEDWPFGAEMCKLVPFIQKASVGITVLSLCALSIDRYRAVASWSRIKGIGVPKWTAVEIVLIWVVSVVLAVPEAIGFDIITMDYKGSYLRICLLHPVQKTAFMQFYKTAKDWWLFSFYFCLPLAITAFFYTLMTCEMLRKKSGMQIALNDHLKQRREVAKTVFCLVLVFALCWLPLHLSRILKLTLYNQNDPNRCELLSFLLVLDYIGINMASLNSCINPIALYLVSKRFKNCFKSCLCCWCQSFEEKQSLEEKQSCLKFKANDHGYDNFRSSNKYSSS
The experiment in a line: Binding Test #2: inhibition of 125I-endothelin-1 binding to ETB receptors (transfected COS7 cell membranes). The conditions noted are these: incubation at 24° C.; generally the average of 2 to 3 experiments.
From the text: as §1
COS7 cells were transfected with DNA encoding the ETB receptor, The resulting cells, which express the human ETB receptor, were grown to confluence in T-150 flasks. Membrane was prepared as described above. The binding assay was performed as described above using the membrane preparation diluted with binding buffer to a concentration of 1 μg/50 μl.
Briefly, the COS7 cells, described above, that had been transfected with DNA encoding the ETB receptor and express the human ETB receptor on their surfaces were grown to confluence in T-175 flasks. Cells from multiple flasks were collected by scraping, pooled and centrifuged for 10 min at 190×g. The cells were resuspended in phosphate buffered saline (PBS) containing 10 mM EDTA using a Tenbroeck homogenizer. The suspension was centrifuged at 4° C. 57,800×g for 15 min, the pellet was resuspended in 5 ml of buffer A (5mM HEPES buffer, pH 7.4 containing aprotinin (100 KIU/ml)) and then frozen and thawed once. Five ml of Buffer B (5 mM HEPES Buffer, pH 7.4 containing 10 mM MnCl2 and 0.001% deoxyribonuclease Type 1) was added, the suspension mixed by inversion and then incubated at 37° C. for 30 minutes. The mixture was centrifuged at 57,800×g as described above, the pellet washed twice with buffer A and then resuspended in buffer C (30 mM HEPES buffer, pH 7.4 containing aprotinin (100 KIU/ml) to give a final protein concentration of 2 mg/ml.
The binding assay was performed as described above using the membrane preparation diluted to give 1 μg/50, μl of binding buffer.

For assay [3], the target named is ETA receptor. The conditions noted are these: cited from earlier work; for IC50: read-out: IC50, inhibition of 125I-labelled endothelin-1 binding.
Assay [4] concerns ETB receptors. The conditions noted are these: concentrations up to 100 μM; cited from earlier work.
The test system of assay [5] is isolated vascular strips. Conditions: read-out: EC50, contractile agent; cited from earlier work.

As for `Cc1noc(NS(=O)(=O)c2c(Cc3cccc4ccccc34)sc3ncccc23)c1Cl` [N-(4-chloro-3-methyl-5-isoxazolyl)-2-(1-naphthylmethyl)thieno[2,3-b]pyridine-3-sulfonamide], the IC50 is 0.034 µM in assay [1] and 0.56 µM in assay [2].
Regarding `Cc1ccc(Cc2sc3ncccc3c2S(=O)(=O)Nc2onc(C)c2Cl)c(C)c1` [N-(4-chloro-3-methyl-5-isoxazolyl)-2-(2,4-dimethylbenzyl)thieno[2,3-b]pyridine-3-sulfonamide], the IC50 was determined as 0.0045 µM in assay [1] and 1.5 µM in assay [2].
`COc1cccc(OC)c1Cc1sc2ncccc2c1S(=O)(=O)Nc1onc(C)c1Cl` [N-(4-chloro-3-methyl-5-isoxazolyl)-2-(2,6-dimethoxybenzyl)thieno[2,3-b]pyridine-3-sulfonamide]: the IC50 in assay [1] turned out to be 0.65 µM; in assay [2], 10.1 µM.
The corresponding values for `Cc1noc(NS(=O)(=O)c2c(Cc3cc4c(cc3CCO)OCO4)sc3ncccc23)c1Cl` [N-(4-chloro-3-methyl-5-isoxazolyl)-2-[2-(2-hydroxyethyl)-4,5-(methylenedioxy)benzyl]thieno[2,3-b]pyridine-3-sulfonamide] are 0.0015 µM and 3.6 µM.
On to `Cc1cc2c(cc1Cc1sc3ncccc3c1S(=O)(=O)Nc1onc(C)c1Cl)OCO2` [N-(4-chloro-3-methyl-5-isoxazolyl)-2-[2-methyl-4,5-(methylene-dioxy)benzyl]thieno [2,3-b]pyridine-3-sulfonamide], for which the IC50 in assay [1] was found to be 0.0015 µM; in assay [2] it was 1.6 µM.
Turning to `Cc1noc(NS(=O)(=O)c2c(C(=O)c3ccc4c(c3)OCO4)sc3ncccc23)c1Cl` [N-(4-chloro-3-methyl-5-isoxazolyl)-2-[3,4-(methylenedioxy)benzoyl]-thieno [2,3-b]pyridine-3-sulfonamide], the half-maximal inhibitory concentration (IC50) is 0.96 µM in assay [1] and 31 µM in assay [2].
With `Cc1noc(NS(=O)(=O)c2c(Cc3ccc4c(c3)OCO4)sc3ncccc23)c1Cl` [N-(4-chloro-3-methyl-5-isoxazolyl)-2-[3,4-(methylenedioxy)benzyl]thieno [2,3-b]pyridine-3-sulfonamide], the results for the IC50 in assay [1] and in assay [2] were 0.0056 µM and 2.8 µM, respectively.
The corresponding values for `Cc1noc(NS(=O)(=O)c2c(C(=O)CCc3ccc4c(c3)OCO4)sc3ncccc23)c1Cl` [N-(4-chloro-3-methyl-5-isoxazolyl)-2-[3-(3,4-methylenedioxyphenyl)-proponyl]thieno [2,3-b]pyridine-3-sulfonamide] are 0.045 µM and 6.6 µM.
Consider `CCc1sc2ncccc2c1S(=O)(=O)Nc1onc(C)c1Cl` [N-(4-chloro-3-methyl-5-isoxazolyl)-2-ethylthieno[2,3-b]pyridine-3-sulfonamide], for which the IC50 turned out to be 0.068 µM in assay [1] and 39 µM in assay [2].
On to `Cc1noc(NS(=O)(=O)c2csc3ncccc23)c1Cl` [N-(4-chloro-3-methyl-5-isoxazolyl)thieno[2,3-b]pyridine-3-sulfonamide], for which the IC50 in assay [1] is 1.8 µM; in assay [2], > 100 µM.
As for `Cc1cc2c(cc1Cc1sc3ncccc3c1S(=O)(=O)Nc1noc(C)c1Cl)OCO2` [N-(4-chloro-5-methyl-3-isoxazolyl)-2-[2-methyl-4,5-(methylenedioxy)-benzyl]thieno[2,3-b]pyridine-3-sulfonamide], the values for the IC50 in assay [1] and in assay [2] were 0.001 µM and 0.5 µM, respectively.
In the case of `CCc1sc2ncccc2c1S(=O)(=O)Nc1noc(C)c1Cl` [N-(4-chloro-5-methyl-3-isoxazolyl)-2-ethylthieno [2,3-b]pyridine-3-sulfonamide], the IC50 in assay [1] turned out to be 0.045 µM; in assay [2] it was 30 µM.
As for “cyclo(D-Glu-L-Ala-allo-D-llc-L-Leu-D-Trp) [BE-18257B]”, the IC50 is 1.4 µM in assay [3] (aortic smooth muscle), 0.5 µM in assay [3] (cultured aortic smooth muscle cells) and 0.8 µM in assay [3] (ventricle membranes). Besides, in assay [4], the “inhibition of binding to receptors in tissues in which ETB receptors predominate” value is listed as “fails to inhibit binding”.
Take “endothelin-1: potent twenty-one amino acid peptide vasoconstrictor”: in assay [3] (cardiovascular tissues), the “potency of inhibition of 125I-labelled endothelin-1 binding relative to endothelin-3” value is given as “forty to seven hundred times more potently than endothelin-3”. Moreover, the half-maximal effective concentration (EC50) in assay [5] is 0.0004 µM.

One may read the IC50 as the point on the concentration scale where inhibition reaches its midpoint. As usually defined, the EC50 is the concentration that produces a half-maximal response.
